From patent publication US20160318987A1 (MEDIMMUNE LIMITED, priority 2013, published 2016)
Where a SMILES comes first, the peptide text is derived from it. [ ]: non-standard residue; d: D form. αMeF = C[C@](N)(Cc1ccccc1)C(=O)O; Aib = CC(C)(N)C(=O)O

What was measured:
hGLP-1R = target: T1, hGLP-1R (Homo sapiens, UniProt P43220); experiment: cAMP functional assay, cells expressing human GLP-1 receptor (primary assay); assay type: cell-based; settings: n = 2
T1 construct: expressed in transfected cells
Method: (§1) The biological activities/receptor potencies of the synthetic GLP-1 peptides described herein are suitably tested for biological activity, e.g., stimulation of one or more cellular receptor responses. Stable cell lines expressing human, mouse, rat, or dog GLP-1 receptor (GLP-1R), glucagon receptor (GCGR) or glucose-dependent insulinotropic peptide (gastric inhibitory polypeptide) receptor (GIPR) are generated in HEK293 cells or CHO cells by standard methods.
(§2) cAMP assays were performed using “assay buffer”: Assay Buffer: 0.1% BSA (Sigma #A3059) in HBSS (Sigma #H8264) with 25 mM HEPES, pH 7.4 and containing 0.5 mM IBMX (Sigma #17018).
(§3) Low protein binding 384-well plates (Greiner #781280) are used to perform eleven 1 in 5 serial dilutions of test samples which are made in assay buffer. All sample dilutions are made in duplicate.
(§4) A frozen cryo-vial of cells expressing the receptor of interest is thawed rapidly in a water-bath, transferred to pre-warmed assay buffer and spun at 240× g for 5 minutes. Cells are re-suspended in assay buffer at a batch-dependent optimized concentration (e.g. hGCGR cells at 2×10^5 cells/ml, hGLP-1R and hGIPR cells at 1×10^5 cells /ml).
(§5) From the dilution plate, a 5 μL replica is stamped onto a black shallow-well u-bottom 384-well plate (Corning #3676). To this, 5 μL cell suspension is added and the plates incubated at room temperature for 30 minutes.
(§6) cAMP levels are measured using a commercially available cAMP dynamic 2 HTRF kit (Cisbio, Cat #62AM4PEJ), following the two step protocol as per manufacturer's recommendations. In brief; anti-cAMP cryptate (donor fluorophore) and cAMP-d2 (acceptor fluorophore) are made up separately by diluting each 1/20 in conjugate & lysis buffer provided in the kit. 5 μL anti-cAMP cryptate is added to all wells of the assay plate, and 5 μL cAMP-d2 is added to all wells except non-specific binding (NSB) wells, to which conjugate and lysis buffer are added. Plates are incubated at room temperature for one hour and then read on an Envision (Perkin Elmer) using excitation wavelength of 320 nm and emission wavelengths of 620 nm & 665 nm. EC50 values of the synthetic peptides determined in cAMP assays are then determined.

hGIP-R = target: T2, hGIP-R (Homo sapiens, UniProt P48546); experiment: cAMP functional assay, cells expressing human GIP receptor (primary assay); assay type: cell-based; settings: n = 2
T2 construct: expressed in transfected cells
T2 sequence (P48546 22-466): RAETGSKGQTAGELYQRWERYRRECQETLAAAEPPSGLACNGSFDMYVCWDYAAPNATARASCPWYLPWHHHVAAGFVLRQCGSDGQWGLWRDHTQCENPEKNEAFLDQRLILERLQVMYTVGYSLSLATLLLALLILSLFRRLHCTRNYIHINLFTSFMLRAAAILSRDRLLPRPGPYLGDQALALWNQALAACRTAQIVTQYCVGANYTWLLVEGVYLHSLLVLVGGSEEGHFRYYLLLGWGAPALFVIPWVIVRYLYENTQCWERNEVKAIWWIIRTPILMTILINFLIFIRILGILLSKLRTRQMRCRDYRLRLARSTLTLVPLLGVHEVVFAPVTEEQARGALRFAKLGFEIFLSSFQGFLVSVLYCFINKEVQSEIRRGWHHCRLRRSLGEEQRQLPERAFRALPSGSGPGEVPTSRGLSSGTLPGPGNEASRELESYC
Method: as §1, §2, §3, §4, §5, §6

T1 sequence (P43220 24-463): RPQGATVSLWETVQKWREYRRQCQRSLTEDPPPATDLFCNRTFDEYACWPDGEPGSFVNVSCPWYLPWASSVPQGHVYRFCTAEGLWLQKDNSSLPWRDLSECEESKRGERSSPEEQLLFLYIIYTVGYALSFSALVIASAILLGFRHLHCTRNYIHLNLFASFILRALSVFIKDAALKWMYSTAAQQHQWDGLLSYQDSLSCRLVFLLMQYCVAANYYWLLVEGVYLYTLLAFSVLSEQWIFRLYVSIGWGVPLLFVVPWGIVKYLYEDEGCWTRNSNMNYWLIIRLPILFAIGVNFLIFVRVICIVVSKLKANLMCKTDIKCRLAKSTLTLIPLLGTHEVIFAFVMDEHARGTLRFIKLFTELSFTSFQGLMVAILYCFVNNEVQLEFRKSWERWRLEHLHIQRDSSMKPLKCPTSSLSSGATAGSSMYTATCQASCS

Row | EC50 (hGLP-1R) [nM] | EC50 (hGIP-R) [nM] | Structure (SMILES)
1 | 0.026 | 102 | CC[C@H](C)[C@H](NC(=O)[C@](C)(Cc1ccccc1)NC(=O)[C@H](CCC(=O)O)NC(=O)[C@H](CCCCN)NC(=O)[C@H](C)NC(=O)[C@H](C)NC(=O)[C@H](CCC(N)=O)NC(=O)CNC(=O)[C@H](CCC(=O)O)NC(=O)[C@H](CC(C)C)NC(=O)[C@](C)(Cc1ccccc1)NC(=O)[C@H](CO)NC(=O)[C@H](CO)NC(=O)[C@@H](NC(=O)[C@H](CC(=O)O)NC(=O)[C@H](CO)NC(=O)[C@@H](NC(=O)[C@](C)(Cc1ccccc1)NC(=O)[C@@H](NC(=O)CNC(=O)[C@H](CCC(=O)O)NC(=O)C(C)(C)NC(=O)[C@@H](N)Cc1c[nH]cn1)[C@@H](C)O)[C@@H](C)O)C(C)C)C(=O)N[C@@H](C)C(=O)N[C@@](C)(Cc1ccccc1)C(=O)N[C@@H](CC(C)C)C(=O)N[C@H](C(=O)N[C@@H](CCCCN)C(=O)NCC(=O)N[C@@H](CCCNC(=N)N)C(N)=O)C(C)C [SEQ ID NO: 19, H-(Aib)^2-EGT^5-(α-MeF)^6-TSDV^10 SS-(α-MeF)^13-LE^15 GQAAK^20 E-(α-MeF)^22-IA-(α-MeF)^25 LVKGR^30] (H-H[Aib]EGT[αMeF]TSDVSS[αMeF]LEGQAAKE[αMeF]IA[αMeF]LVKGR-NH2)
2 | 0.00951 | 102 | CC[C@H](C)[C@H](NC(=O)[C@H](Cc1ccccc1)NC(=O)[C@H](CCC(=O)O)NC(=O)[C@H](CCCCN)NC(=O)[C@H](C)NC(=O)[C@H](C)NC(=O)[C@H](CCC(N)=O)NC(=O)CNC(=O)[C@H](CCC(=O)O)NC(=O)[C@H](CC(C)C)NC(=O)[C@H](Cc1ccc(O)cc1)NC(=O)[C@H](CO)NC(=O)[C@H](CO)NC(=O)[C@@H](NC(=O)[C@H](CC(=O)O)NC(=O)[C@H](CO)NC(=O)[C@@H](NC(=O)[C@H](Cc1ccccc1)NC(=O)[C@H](CO)NC(=O)CNC(=O)[C@H](CCC(=O)O)NC(=O)C(C)(C)NC(=O)[C@@H](N)Cc1c[nH]cn1)[C@@H](C)O)C(C)C)C(=O)N[C@@H](C)C(=O)N[C@@H](Cc1c[nH]c2ccccc12)C(=O)N[C@@H](CC(C)C)C(=O)N[C@H](C(=O)N[C@@H](CCCCN)C(=O)NCC(=O)N[C@@H](CCCNC(=N)N)C(N)=O)C(C)C [SEQ ID NO: 28, H-(Aib)^2-EG-(S)^5-FTSDV^10 SSYLE^15 GQAAK^20 EFIAW^25 LVKGR^30]
3 | 0.0126 | 102 | CC[C@H](C)[C@H](NC(=O)[C@](C)(Cc1ccccc1)NC(=O)[C@H](CCC(=O)O)NC(=O)[C@H](CCCCN)NC(=O)[C@H](C)NC(=O)[C@H](C)NC(=O)[C@H](CCC(N)=O)NC(=O)CNC(=O)[C@H](CCC(=O)O)NC(=O)[C@H](CC(C)C)NC(=O)[C@](C)(Cc1ccccc1)NC(=O)[C@H](CO)NC(=O)[C@H](CO)NC(=O)[C@@H](NC(=O)[C@H](CC(=O)O)NC(=O)[C@H](CO)NC(=O)[C@@H](NC(=O)[C@](C)(Cc1ccccc1)NC(=O)[C@@H](NC(=O)CNC(=O)[C@H](CCC(=O)O)NC(=O)C(C)(C)NC(=O)[C@@H](N)Cc1c[nH]cn1)[C@@H](C)O)[C@@H](C)O)C(C)C)C(=O)N[C@@H](C)C(=O)N[C@@H](Cc1c[nH]c2ccccc12)C(=O)N[C@@H](CC(C)C)C(=O)N[C@H](C(=O)N[C@@H](CCCCN)C(=O)NCC(=O)N[C@@H](CCCNC(=N)N)C(N)=O)C(C)C [SEQ ID NO: 29, H-(Aib)^2-EGT^5-(α-MeF)^6-TSDV^10 SS-(α-MeF)^13-LE^15 GQAAK^20 E-(α-MeF)^22-IAW^25 LVKGR^30] (H-H[Aib]EGT[αMeF]TSDVSS[αMeF]LEGQAAKE[αMeF]IAWLVKGR-NH2)
4 | 0.0117 | 98.9 | CC[C@H](C)[C@H](NC(=O)[C@H](Cc1ccccc1)NC(=O)[C@H](CCC(=O)O)NC(=O)[C@H](CCCCN)NC(=O)[C@H](C)NC(=O)[C@H](C)NC(=O)[C@H](CCC(N)=O)NC(=O)CNC(=O)[C@H](CCC(=O)O)NC(=O)[C@H](CC(C)C)NC(=O)[C@](C)(Cc1ccccc1)NC(=O)[C@H](CO)NC(=O)[C@H](CO)NC(=O)[C@@H](NC(=O)[C@H](CC(=O)O)NC(=O)[C@H](CO)NC(=O)[C@@H](NC(=O)[C@](C)(Cc1ccccc1)NC(=O)[C@@H](NC(=O)CNC(=O)[C@H](CCC(=O)O)NC(=O)C(C)(C)NC(=O)[C@@H](N)Cc1c[nH]cn1)[C@@H](C)O)[C@@H](C)O)C(C)C)C(=O)N[C@@H](C)C(=O)N[C@@](C)(Cc1ccccc1)C(=O)N[C@@H](CC(C)C)C(=O)N[C@H](C(=O)N[C@@H](CCCCN)C(=O)NCC(=O)N[C@@H](CCCNC(=N)N)C(N)=O)C(C)C [SEQ ID NO: 30, H-(Aib)^2-EGT^5-(α-MeF)^6-TSDV^10 SS-(α-MeF)^13-LE^15 GQAAK^20 EF^22-IA-(α-MeF)^25 LVKGR^30] (H-H[Aib]EGT[αMeF]TSDVSS[αMeF]LEGQAAKEFIA[αMeF]LVKGR-NH2)
5 | 0.0155 | 102 | CC[C@H](C)[C@H](NC(=O)[C@](C)(Cc1ccccc1)NC(=O)[C@H](CCC(=O)O)NC(=O)[C@H](CCCCN)NC(=O)[C@H](C)NC(=O)[C@H](C)NC(=O)[C@H](CCC(N)=O)NC(=O)CNC(=O)[C@H](CCC(=O)O)NC(=O)[C@H](CC(C)C)NC(=O)[C@H](Cc1ccc(O)cc1)NC(=O)[C@H](CO)NC(=O)[C@H](CO)NC(=O)[C@@H](NC(=O)[C@H](CC(=O)O)NC(=O)[C@H](CO)NC(=O)[C@@H](NC(=O)[C@](C)(Cc1ccccc1)NC(=O)[C@@H](NC(=O)CNC(=O)[C@H](CCC(=O)O)NC(=O)C(C)(C)NC(=O)[C@@H](N)Cc1c[nH]cn1)[C@@H](C)O)[C@@H](C)O)C(C)C)C(=O)N[C@@H](C)C(=O)N[C@@](C)(Cc1ccccc1)C(=O)N[C@@H](CC(C)C)C(=O)N[C@H](C(=O)N[C@@H](CCCCN)C(=O)NCC(=O)N[C@@H](CCCNC(=N)N)C(N)=O)C(C)C [SEQ ID NO: 31, H-(Aib)^2-EGT^5-(α-MeF)^6-TSDV^10 SSYLE^15 GQAAK^20 E-(α-MeF)^22-IA-(α-MeF)^25 LVKGR^30]
6 | 0.102 | 102 | CC[C@H](C)[C@H](NC(=O)[C@](C)(Cc1ccccc1)NC(=O)[C@H](CCC(=O)O)NC(=O)[C@H](CCCCN)NC(=O)[C@H](C)NC(=O)[C@H](C)NC(=O)[C@H](CCC(N)=O)NC(=O)CNC(=O)[C@H](CCC(=O)O)NC(=O)[C@H](CC(C)C)NC(=O)[C@](C)(Cc1ccccc1)NC(=O)[C@H](CO)NC(=O)[C@H](CO)NC(=O)[C@@H](NC(=O)[C@H](CC(=O)O)NC(=O)[C@H](CO)NC(=O)[C@@H](NC(=O)[C@H](Cc1ccccc1)NC(=O)[C@@H](NC(=O)CNC(=O)[C@H](CCC(=O)O)NC(=O)C(C)(C)NC(=O)[C@@H](N)Cc1c[nH]cn1)[C@@H](C)O)[C@@H](C)O)C(C)C)C(=O)N[C@@H](C)C(=O)N[C@@](C)(Cc1ccccc1)C(=O)N[C@@H](CC(C)C)C(=O)N[C@H](C(=O)N[C@@H](CCCCN)C(=O)NCC(=O)N[C@@H](CCCNC(=N)N)C(N)=O)C(C)C [SEQ ID NO: 32, H-(Aib)^2-EGT^5-FTSDV^10 SS-(α-MeF)^13-LE^15 GQAAK^20 E-(α-MeF)^22-IA-(α-MeF)^25 LVKGR^30] (H-H[Aib]EGTFTSDVSS[αMeF]LEGQAAKE[αMeF]IA[αMeF]LVKGR-NH2)
